Test results from ChEMBL document CHEMBL3044789, “Comparing weed and crop seedling response to pre-emergence pendimethalin application in Corchorus olitorius and Abelmoschus esculentus” (Crop Prot, 2006).

Columns and labels:
Calopogonium mucunoides [1] = assay: Herbicidal activity against Calopogonium mucunoides in Abelmoschus esculentus plots assessed as weed cover at 1.32 kg a.i/ha after 4 weeks (reference value: 22.6 +/- 0.49 %); assay type: functional
Synedrella nodiflora [2] = assay: Herbicidal activity against Synedrella nodiflora in Abelmoschus esculentus plots assessed as weed cover at 1.32 kg a.i/ha after 4 weeks (reference value: 22.6 +/- 0.49 %); assay type: functional
Euphorbia heterophylla [3] = assay: Herbicidal activity against Euphorbia heterophylla in Abelmoschus esculentus plots assessed as weed cover at 0.99 kg a.i/ha after 4 weeks (reference value: 22.6 +/- 0.49 %); assay type: functional
Commelina diffusa [4] = assay: Herbicidal activity against Commelina diffusa in Abelmoschus esculentus plots assessed as weed cover at 0.66 kg a.i/ha after 4 weeks (reference value: 22.6 +/- 0.49 %); assay type: functional
Calopogonium mucunoides [5] = assay: Herbicidal activity against Calopogonium mucunoides in Abelmoschus esculentus plots assessed as weed cover at 0.99 kg a.i/ha after 2 weeks (reference value: 63.5 +/- 0.29 %); assay type: functional
Talinum fruticosum = assay: Herbicidal activity against Talinum fruticosum in Abelmoschus esculentus plots assessed as weed cover at 0.99 kg a.i/ha after 2 weeks (reference value: 63.5 +/- 0.29 %); assay type: functional
Euphorbia heterophylla [6] = assay: Herbicidal activity against Euphorbia heterophylla in Abelmoschus esculentus plots assessed as major weed growth at 0.99 kg a.i/ha after 2 weeks; assay type: functional
Synedrella nodiflora [7] = assay: Herbicidal activity against Synedrella nodiflora in Abelmoschus esculentus plots assessed as major weed growth at 0.99 kg a.i/ha after 2 weeks; assay type: functional
Commelina diffusa [8] = assay: Herbicidal activity against Commelina diffusa in Corchorus olitorius plots assessed as minor weed growth at 0.66 kg a.i/ha after 2 weeks; assay type: functional
Calopogonium mucunoides [9] = assay: Herbicidal activity against Calopogonium mucunoides in Corchorus olitorius plots assessed as major weed growth at 0.33 kg a.i/ha after 2 weeks; assay type: functional
Synedrella nodiflora [10] = assay: Herbicidal activity against Synedrella nodiflora in Corchorus olitorius plots assessed as major weed growth at 0.33 kg a.i/ha after 2 weeks; assay type: functional
Ageratum conyzoides [11] = assay: Herbicidal activity against Ageratum conyzoides in Corchorus olitorius plots assessed as minor weed growth at 1.32 kg a.i/ha after 2 weeks; assay type: functional
Euphorbia heterophylla [12] = assay: Herbicidal activity against Euphorbia heterophylla in Abelmoschus esculentus plots assessed as weed recovery at 0.33 kg a.i/ha after 2 weeks (reference value: 60.1 +/- 0.46 %); assay type: functional
Ageratum conyzoides [13] = assay: Herbicidal activity against Ageratum conyzoides in Abelmoschus esculentus plots assessed as weed cover at 1.32 kg a.i/ha after 7 weeks (reference value: 14.7 +/- 0.46 %); assay type: functional
Mimosa pudica [14] = assay: Herbicidal activity against Mimosa pudica in Abelmoschus esculentus plots assessed as weed cover at 0.33 kg a.i/ha after 7 weeks (reference value: 14.7 +/- 0.46 %); assay type: functional
Calopogonium mucunoides [15] = assay: Herbicidal activity against Calopogonium mucunoides in Corchorus olitorius plots assessed as weed recovery at 0.99 kg a.i/ha after 2 weeks (reference value: 78.3 +/- 0.74 %); assay type: functional
[16] = system: Rottboellia cochinchinensis; assay: Herbicidal activity against Rottboellia cochinchinensis in Abelmoschus esculentus plots assessed as weed cover at 0.33 kg a.i/ha after 2 weeks (reference value: 63.5 +/- 0.29 %); assay type: functional
Corchorus olitorius [17] = assay: Phytotoxicity in Corchorus olitorius assessed as crop seedling injury at 0.66 kg a.i/ha after 2 weeks relative to untreated control; assay type: organism-based; settings: in vivo, 336 h
[18] = system: Rottboellia cochinchinensis; assay: Herbicidal activity against Rottboellia cochinchinensis in Abelmoschus esculentus plots assessed as weed cover at 0.33 kg a.i/ha after 7 weeks (reference value: 14.7 +/- 0.46 %); assay type: functional
Abelmoschus esculentus [19] = assay: Phytotoxicity in Abelmoschus esculentus assessed as root length at 0.99 kg a.i/ha treated to soil after 7 weeks (reference value: 2.9 +/- 0.45 mm); assay type: organism-based; settings: in vivo, other, 1176 h
Abelmoschus esculentus [20] = assay: Phytotoxicity in Abelmoschus esculentus assessed as root length at 1.32 kg a.i/ha treated to soil after 7 weeks (reference value: 2.9 +/- 0.45 mm); assay type: organism-based; settings: in vivo, other, 1176 h
Corchorus olitorius [21] = assay: Phytotoxicity in Corchorus olitorius assessed as seed germination at 0.33 kg a.i/ha applied as solution after 7 weeks relative to untreated control; assay type: organism-based; settings: in vivo, other, 1176 h
Synedrella nodiflora [22] = assay: Herbicidal activity against Synedrella nodiflora in Corchorus olitorius plots assessed as weed cover at 0.66 kg a.i/ha after 7 weeks (reference value: 1.7 +/- 0.56 %); assay type: functional
Abelmoschus esculentus [23] = assay: Phytotoxicity in Abelmoschus esculentus assessed as root length at 1.32 kg a.i/ha applied as solution after 7 weeks (reference value: 23 +/- 0.34 mm); assay type: organism-based; settings: in vivo, other, 1176 h
Calopogonium mucunoides [24] = assay: Herbicidal activity against Calopogonium mucunoides in Corchorus olitorius plots assessed as weed cover at 0.66 kg a.i/ha after 2 weeks (reference value: 81.7 +/- 0.43 %); assay type: functional
Ageratum conyzoides [25] = assay: Herbicidal activity against Ageratum conyzoides in Corchorus olitorius plots assessed as weed cover at 0.33 kg a.i/ha after 2 weeks (reference value: 81.7 +/- 0.43 %); assay type: functional
Cyperus rotundus = assay: Herbicidal activity against Cyperus rotundus form in Abelmoschus esculentus plots assessed as minor weed growth at 0.66 kg a.i/ha after 2 weeks; assay type: functional
Calopogonium mucunoides [26] = assay: Herbicidal activity against Calopogonium mucunoides in Abelmoschus esculentus plots assessed as major weed growth at 0.99 kg a.i/ha after 2 weeks; assay type: functional
Abelmoschus esculentus [27] = assay: Phytotoxicity in Abelmoschus esculentus assessed as seed germination at 0.33 kg a.i/ha applied as solution after 7 weeks (reference value: 85.7 +/- 0.36 %); assay type: organism-based; settings: in vivo, other, 1176 h
Abelmoschus esculentus [28] = assay: Phytotoxicity in Abelmoschus esculentus assessed as shoot length at 1.32 kg a.i/ha treated to soil after 7 weeks (reference value: 8.5 +/- 0.34 mm); assay type: organism-based; settings: in vivo, other, 1176 h
Corchorus olitorius [29] = assay: Phytotoxicity in Corchorus olitorius assessed as shoot length at 0.66 kg a.i/ha treated to soil after 7 weeks (reference value: 23.7 +/- 0.10 mm); assay type: organism-based; settings: in vivo, other, 1176 h
Calopogonium mucunoides [30] = assay: Herbicidal activity against Calopogonium mucunoides in Abelmoschus esculentus plots assessed as weed recovery at 1.32 kg a.i/ha after 2 weeks (reference value: 60.1 +/- 0.46 %); assay type: functional
Euphorbia heterophylla [31] = assay: Herbicidal activity against Euphorbia heterophylla in Abelmoschus esculentus plots assessed as weed recovery at 1.32 kg a.i/ha after 2 weeks (reference value: 60.1 +/- 0.46 %); assay type: functional
Synedrella nodiflora [32] = assay: Herbicidal activity against Synedrella nodiflora in Abelmoschus esculentus plots assessed as weed recovery at 1.32 kg a.i/ha after 2 weeks (reference value: 60.1 +/- 0.46 %); assay type: functional
Mimosa pudica [33] = assay: Herbicidal activity against Mimosa pudica in Abelmoschus esculentus plots assessed as weed recovery at 0.33 kg a.i/ha after 2 weeks (reference value: 60.1 +/- 0.46 %); assay type: functional
Synedrella nodiflora [34] = assay: Herbicidal activity against Synedrella nodiflora in Corchorus olitorius plots assessed as weed cover at 0.99 kg a.i/ha after 4 weeks (reference value: 20.1+/- 0.57 %); assay type: functional
[35] = system: Rottboellia cochinchinensis; assay: Herbicidal activity against Rottboellia cochinchinensis in Corchorus olitorius plots assessed as weed cover at 0.33 kg a.i/ha after 4 weeks (reference value: 20.1+/- 0.57 %); assay type: functional

## CCC(CC)Nc1c([N+](=O)[O-])cc(C)c(C)c1[N+](=O)[O-] [PENDIMETHALIN]
Calopogonium mucunoides [1]
  Activity: 36.2%
Synedrella nodiflora [2]
  Activity: 36.2%
Euphorbia heterophylla [3]
  Activity: 39.2%
Commelina diffusa [4]
  Activity: 47.9%
Calopogonium mucunoides [5]
  Activity: 47.9%
Talinum fruticosum
  Activity: 47.9%
Euphorbia heterophylla [6]
  Activity: 31 /m2
Synedrella nodiflora [7]
  Activity: 31 /m2
Commelina diffusa [8]
  Activity: 1 /m2
Calopogonium mucunoides [9]
  Activity: 31 /m2
Synedrella nodiflora [10]
  Activity: 31 /m2
Ageratum conyzoides [11]
  Activity: 1 /m2
Euphorbia heterophylla [12]
  Activity: 39.2%
Ageratum conyzoides [13]
  Activity: 82.4%
Mimosa pudica [14]
  Activity: 90%
Calopogonium mucunoides [15]
  Activity: 21.7%
[16]
  Activity: 56.8%
Corchorus olitorius [17]
  Activity: 41.7%
[18]
  Activity: 90%
Abelmoschus esculentus [19]
  Activity: 1.1 mm
Abelmoschus esculentus [20]
  Activity: 1.5 mm
Corchorus olitorius [21]
  Activity: 88.7%
Synedrella nodiflora [22]
  Activity: 100%
Abelmoschus esculentus [23]
  Activity: 11.5 mm
Calopogonium mucunoides [24]
  Activity: 51.7%
Ageratum conyzoides [25]
  Activity: 63.3%
Cyperus rotundus
  Activity: 1 /m2
Calopogonium mucunoides [26]
  Activity: 31 /m2
Abelmoschus esculentus [27]
  Activity: 52.7%
Abelmoschus esculentus [28]
  Activity: 3.6 mm
Corchorus olitorius [29]
  Activity: 20.8 mm
Calopogonium mucunoides [30]
  Activity: 33.2%
Euphorbia heterophylla [31]
  Activity: 33.2%
Synedrella nodiflora [32]
  Activity: 33.2%
Mimosa pudica [33]
  Activity: 39.2%
Synedrella nodiflora [34]
  Activity: 48.3%
[35]
  Activity: 73.3%
